Experimental data taken from ChEMBL document CHEMBL5247644, “Design and Synthesis of Sulfonium Derivatives: A Novel Class of α-Glucosidase Inhibitors with Potent In Vivo Antihyperglycemic Activities” (J Med Chem, 2023).
pIC50, pKi: −log10 of the molar value. Blank lines part the entries; values can stand above or below the molecule they belong to. The source made the active and inactive calls. The calls are words filed in the database; no cut-off is given here.

Legend:
[1] = target: T1, Sucrase-isomaltase, intestinal (Rattus norvegicus, UniProt P23739); test: Inhibition of sucrase in rat small intestinal brush border membrane vesicles using sucrose as substrate incubated for 30 mins by glucose-oxidase method; type: cell membranes, Small intestine, Membrane vesicle
[2] = Inhibition of maltase in rat small intestinal brush border membrane vesicles using maltose as substrate incubated for 30 mins by glucose-oxidase method; type: cell membranes, Small intestine, Membrane vesicle
Mus musculus [3] = test: Antihyperglycemic activity in overnight fasted ICR mouse assessed as decrease in AUC of blood glucose level at 20 mg/kg, IG administered via tube and measured after 15 to 60 mins by sucrose loading test relative to control; type: functional; design: scale not given: the % may be the effect or the level left; settings: time 15-60 min
Mus musculus [4] = test: Antihyperglycemic activity in overnight fasted ICR mouse assessed as decrease in blood glucose level at 20 mg/kg, IG administered via tube and measured after 30 mins by sucrose loading test relative to control; type: functional; design: scale not given: the % may be the effect or the level left; settings: 0.5 h
Mus musculus [5] = test: Antihyperglycemic activity in overnight fasted ICR mouse assessed as decrease in blood glucose level at 20 mg/kg, IG administered via tube and measured after 60 mins by sucrose loading test relative to control; type: functional; design: scale not given: the % may be the effect or the level left; settings: 1 h
Mus musculus [6] = test: Antihyperglycemic activity in overnight fasted ICR mouse assessed as decrease in blood glucose level at 20 mg/kg, IG administered via tube and measured after 15 mins by sucrose loading test relative to control; type: functional; design: scale not given: the % may be the effect or the level left; settings: 0.25 h
Rattus norvegicus [7] = test: Antihyperglycemic activity in fasted rat assessed as decrease in AUC of blood glucose level at 1 mg/kg measured for 15 to 60 mins by maltose loading test relative to control; type: functional; design: scale not given: the % may be the effect or the level left; settings: time 15-60 min
Rattus norvegicus [8] = test: Antihyperglycemic activity in fasted rat assessed as decrease in blood glucose level at 1 mg/kg measured after 60 mins by maltose loading test relative to control; type: functional; design: scale not given: the % may be the effect or the level left
Rattus norvegicus [9] = test: Antihyperglycemic activity in fasted rat assessed as decrease in blood glucose level at 1 mg/kg measured after 30 mins by maltose loading test relative to control; type: functional; design: scale not given: the % may be the effect or the level left; settings: 0.5 h
Mus musculus [10] = test: Antihyperglycemic activity in overnight fasted ICR mouse assessed as decrease in blood glucose level at 1 mg/kg, IG administered via tube and measured after 60 mins by sucrose loading test relative to control; type: functional; design: scale not given: the % may be the effect or the level left
Mus musculus [11] = test: Antihyperglycemic activity in overnight fasted ICR mouse assessed as decrease in blood glucose level at 1 mg/kg, IG administered via tube and measured after 15 mins by sucrose loading test relative to control; type: functional; design: scale not given: the % may be the effect or the level left; settings: 0.25 h
[12] = target: Lysosomal alpha-glucosidase (Rattus norvegicus) (UniProt Q6P7A9); test: Potency index, ratio of neoponkoranol IC50 to test compound IC50 for inhibition of maltase in rat small intestinal brush border membrane vesicles using maltose as substrate incubated for 30 mins by glucose-oxidase method; type: cell membranes; settings: Small intestine, Membrane vesicle
Rattus norvegicus [13] = test: Antihyperglycemic activity in fasted rat assessed as decrease in blood glucose level at 1 mg/kg measured after 15 mins by maltose loading test relative to control; type: functional; design: scale not given: the % may be the effect or the level left; settings: 0.25 h
Mus musculus [14] = test: Antihyperglycemic activity in overnight fasted ICR mouse assessed as decrease in AUC of blood glucose level at 10 mg/kg, IG administered via tube and measured after 15 to 60 mins by sucrose loading test relative to control; type: functional; design: scale not given: the % may be the effect or the level left; settings: time 15-60 min
Mus musculus [15] = test: Antihyperglycemic activity in overnight fasted ICR mouse assessed as decrease in AUC of blood glucose level at 1 mg/kg, IG administered via tube and measured after 15 to 60 mins by sucrose loading test relative to control; type: functional; design: scale not given: the % may be the effect or the level left; settings: time 15-60 min
[16] = target: Lysosomal alpha-glucosidase (Rattus norvegicus) (UniProt Q6P7A9); test: Potency index, ratio of acarbose IC50 to test compound IC50 for inhibition of maltase in rat small intestinal brush border membrane vesicles using maltose as substrate incubated for 30 mins by glucose-oxidase method; type: cell membranes; settings: Small intestine, Membrane vesicle
Mus musculus [17] = test: Antihyperglycemic activity in overnight fasted ICR mouse assessed as decrease in blood glucose level at 10 mg/kg, IG administered via tube and measured after 15 mins by sucrose loading test relative to control; type: functional; design: scale not given: the % may be the effect or the level left; settings: 0.25 h
[18] = target: Sucrase-isomaltase, intestinal (Rattus norvegicus) (UniProt P23739); test: Competitive inhibition of sucrase in rat small intestinal brush border membrane vesicles using sucrose as substrate incubated for 30 mins by Lineweaver-Burk plot analysis; type: cell membranes; settings: Small intestine, Membrane vesicle
Mus musculus [19] = test: Antihyperglycemic activity in overnight fasted ICR mouse assessed as decrease in blood glucose level at 10 mg/kg, IG administered via tube and measured after 60 mins by sucrose loading test relative to control; type: functional; design: scale not given: the % may be the effect or the level left; settings: 1 h
[20] = target: Lysosomal alpha-glucosidase (Rattus norvegicus) (UniProt Q6P7A9); test: Potency index, ratio of voglibose IC50 to test compound IC50 for inhibition of maltase in rat small intestinal brush border membrane vesicles using maltose as substrate incubated for 30 mins by glucose-oxidase method; type: cell membranes; settings: Small intestine, Membrane vesicle
[21] = target: T1, Sucrase-isomaltase, intestinal; test: Binding affinity to sucrase in rat small intestinal brush border membrane vesicles assessed as inhibition constant using sucrose as substrate incubated for 30 mins by glucose-oxidase method; type: cell membranes, Small intestine, Membrane vesicle
[22] = target: Sucrase-isomaltase, intestinal (Rattus norvegicus) (UniProt P23739); test: Potency index, ratio of neoponkoranol IC50 to test compound IC50 for inhibition of sucrase in rat small intestinal brush border membrane vesicles using sucrose as substrate incubated for 30 mins by glucose-oxidase method; type: cell membranes; settings: Small intestine, Membrane vesicle
Mus musculus [23] = test: Antihyperglycemic activity in overnight fasted ICR mouse assessed as decrease in blood glucose level at 10 mg/kg, IG administered via tube and measured after 30 mins by sucrose loading test relative to control; type: functional; design: scale not given: the % may be the effect or the level left; settings: 0.5 h
Mus musculus [24] = test: Antihyperglycemic activity in overnight fasted ICR mouse assessed as decrease in blood glucose level at 1 mg/kg, IG administered via tube and measured after 30 mins by sucrose loading test relative to control; type: functional; design: scale not given: the % may be the effect or the level left; settings: 0.5 h
[25] = target: Lysosomal alpha-glucosidase (Rattus norvegicus) (UniProt Q6P7A9); test: Competitive inhibition of maltase in rat small intestinal brush border membrane vesicles using maltose as substrate incubated for 30 mins by Lineweaver-Burk plot analysis; type: cell membranes; settings: Small intestine, Membrane vesicle

T1 sequence (P23739 1-1013 limits assumed): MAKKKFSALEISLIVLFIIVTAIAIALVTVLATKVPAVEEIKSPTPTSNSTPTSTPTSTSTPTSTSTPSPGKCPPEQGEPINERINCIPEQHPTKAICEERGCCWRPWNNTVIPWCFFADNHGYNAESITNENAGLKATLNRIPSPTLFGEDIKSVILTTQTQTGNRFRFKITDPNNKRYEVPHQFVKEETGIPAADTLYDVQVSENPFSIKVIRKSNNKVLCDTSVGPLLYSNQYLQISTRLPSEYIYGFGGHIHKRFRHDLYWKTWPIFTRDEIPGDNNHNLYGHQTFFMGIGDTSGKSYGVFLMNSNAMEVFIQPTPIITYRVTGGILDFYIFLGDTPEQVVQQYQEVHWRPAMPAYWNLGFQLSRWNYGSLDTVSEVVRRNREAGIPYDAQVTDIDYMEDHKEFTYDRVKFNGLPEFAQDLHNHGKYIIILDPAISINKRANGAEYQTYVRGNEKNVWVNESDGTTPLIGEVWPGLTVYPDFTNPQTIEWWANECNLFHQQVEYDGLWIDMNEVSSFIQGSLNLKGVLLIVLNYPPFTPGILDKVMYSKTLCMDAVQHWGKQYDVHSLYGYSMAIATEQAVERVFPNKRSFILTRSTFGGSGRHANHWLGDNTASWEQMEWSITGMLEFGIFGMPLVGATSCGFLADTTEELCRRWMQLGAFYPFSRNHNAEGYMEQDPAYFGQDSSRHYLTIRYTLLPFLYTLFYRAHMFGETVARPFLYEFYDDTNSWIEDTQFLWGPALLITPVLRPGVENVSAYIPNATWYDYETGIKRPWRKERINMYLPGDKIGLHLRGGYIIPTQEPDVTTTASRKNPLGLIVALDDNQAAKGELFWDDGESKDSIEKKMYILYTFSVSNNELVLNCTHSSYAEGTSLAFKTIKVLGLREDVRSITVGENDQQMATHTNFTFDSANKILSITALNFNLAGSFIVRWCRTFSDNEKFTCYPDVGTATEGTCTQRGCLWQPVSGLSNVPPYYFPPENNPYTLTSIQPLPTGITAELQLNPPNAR
T1 sequence (P23739 1014-1841 limits assumed): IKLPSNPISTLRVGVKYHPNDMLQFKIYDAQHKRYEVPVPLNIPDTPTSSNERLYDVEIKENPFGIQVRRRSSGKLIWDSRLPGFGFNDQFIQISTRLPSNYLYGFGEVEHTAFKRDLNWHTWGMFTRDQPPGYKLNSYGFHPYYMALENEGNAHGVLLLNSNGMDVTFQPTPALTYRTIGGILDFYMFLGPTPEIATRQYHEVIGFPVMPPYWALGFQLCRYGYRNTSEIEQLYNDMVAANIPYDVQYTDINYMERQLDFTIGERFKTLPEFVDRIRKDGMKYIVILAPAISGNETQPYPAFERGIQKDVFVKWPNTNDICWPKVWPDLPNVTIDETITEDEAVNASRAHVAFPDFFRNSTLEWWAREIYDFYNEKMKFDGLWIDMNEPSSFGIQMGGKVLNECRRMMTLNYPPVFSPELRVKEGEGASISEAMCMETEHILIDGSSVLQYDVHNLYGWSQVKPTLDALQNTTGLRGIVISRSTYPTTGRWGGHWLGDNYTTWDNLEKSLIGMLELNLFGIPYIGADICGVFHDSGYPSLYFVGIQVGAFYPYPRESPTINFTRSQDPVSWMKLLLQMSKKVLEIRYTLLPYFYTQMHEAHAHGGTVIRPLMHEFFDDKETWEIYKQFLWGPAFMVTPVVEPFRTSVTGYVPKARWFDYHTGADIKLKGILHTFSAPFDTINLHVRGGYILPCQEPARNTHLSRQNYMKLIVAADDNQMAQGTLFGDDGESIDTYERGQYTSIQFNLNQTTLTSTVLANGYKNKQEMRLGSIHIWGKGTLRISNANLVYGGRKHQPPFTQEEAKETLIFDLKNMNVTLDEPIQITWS
Sucrase-isomaltase, intestinal (Rattus norvegicus), sequence (P23739 1-1013 limits assumed): as the sequence (P23739 1-1013 limits assumed) above
Sucrase-isomaltase, intestinal (Rattus norvegicus), sequence (P23739 1014-1841 limits assumed): as the sequence (P23739 1014-1841 limits assumed) above
Lysosomal alpha-glucosidase (Rattus norvegicus), sequence (Q6P7A9 whole entry): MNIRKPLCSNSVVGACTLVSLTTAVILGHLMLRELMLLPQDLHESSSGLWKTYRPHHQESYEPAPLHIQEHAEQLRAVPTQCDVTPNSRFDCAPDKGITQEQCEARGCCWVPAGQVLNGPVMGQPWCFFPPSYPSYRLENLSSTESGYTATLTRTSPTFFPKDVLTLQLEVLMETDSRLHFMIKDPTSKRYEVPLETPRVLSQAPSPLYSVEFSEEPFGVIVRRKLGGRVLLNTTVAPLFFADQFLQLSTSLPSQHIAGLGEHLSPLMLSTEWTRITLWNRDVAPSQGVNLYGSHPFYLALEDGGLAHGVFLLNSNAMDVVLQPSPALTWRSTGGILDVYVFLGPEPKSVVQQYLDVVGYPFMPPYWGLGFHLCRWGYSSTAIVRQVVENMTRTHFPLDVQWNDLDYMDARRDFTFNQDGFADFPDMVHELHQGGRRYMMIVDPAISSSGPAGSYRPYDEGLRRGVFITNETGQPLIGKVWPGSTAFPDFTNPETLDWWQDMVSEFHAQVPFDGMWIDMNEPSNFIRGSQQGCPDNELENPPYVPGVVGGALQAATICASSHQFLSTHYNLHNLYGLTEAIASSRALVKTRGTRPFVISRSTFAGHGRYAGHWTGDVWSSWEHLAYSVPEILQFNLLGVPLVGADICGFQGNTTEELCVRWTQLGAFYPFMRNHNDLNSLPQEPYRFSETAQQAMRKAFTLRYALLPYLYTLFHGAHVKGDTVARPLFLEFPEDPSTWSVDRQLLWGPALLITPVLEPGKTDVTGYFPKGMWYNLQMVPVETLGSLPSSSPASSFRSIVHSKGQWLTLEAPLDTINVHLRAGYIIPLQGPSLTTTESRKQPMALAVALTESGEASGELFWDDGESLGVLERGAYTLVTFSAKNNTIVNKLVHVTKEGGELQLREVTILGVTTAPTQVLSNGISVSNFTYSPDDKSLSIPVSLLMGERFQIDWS

SMILES: C[C@H]1O[C@H](O[C@H]2[C@H](O)[C@@H](O)[C@@H](O[C@H]3[C@H](O)[C@@H](O)C(O)O[C@@H]3CO)O[C@@H]2CO)[C@H](O)[C@@H](O)[C@@H]1N[C@H]1C=C(CO)[C@@H](O)[C@H](O)[C@H]1O (stereo partly drawn) [ACARBOSE]
Activity (Mus musculus [3]): 40%
Activity (Mus musculus [4]): 50.9%
Activity (Mus musculus [5]): 45.1%
Activity (Mus musculus [6]): 40.2%

SMILES: OCC(CO)N[C@H]1C[C@](O)(CO)[C@@H](O)[C@H](O)[C@H]1O [VOGLIBOSE]
Activity (Rattus norvegicus [7]): 41.1%
Activity (Rattus norvegicus [8]): 43.3%
Activity (Rattus norvegicus [9]): 55.1%
Activity (Rattus norvegicus [13]): 50%

SMILES: O=[N+]([O-])c1cccc(C2OC[C@@H](O)[C@@H]([C@H](O)C[S@+]3C[C@@H](O)[C@H](O)[C@H]3CO)O2)c1 (stereo partly drawn)
pIC50 [1]: 5.47
pIC50 [2]: 5.17

SMILES: OC[C@@H]1[C@@H](O)[C@H](O)C[S@@+]1C[C@@H](O)[C@H]1OC(c2ccccc2F)OC[C@H]1O (stereo partly drawn)
pKi [21]: 6.25
pIC50 [1]: 6.40
pIC50 [2]: 6.08

SMILES: OC[C@@H]1[C@@H](O)[C@H](O)C[S@@+]1C[C@@H](O)[C@H]1OC(c2ccc(Cl)cc2)OC[C@H]1O (stereo partly drawn)
pIC50 [1]: 5.64
pIC50 [2]: 5.40

SMILES: OC[C@@H]1[C@@H](O)[C@H](O)C[S@@+]1C[C@@H](O)[C@@H](O)[C@@H](O)[C@@H](O)CO
Activity (Rattus norvegicus [7]): 23%
Activity (Rattus norvegicus [8]): 19.8%
Activity (Rattus norvegicus [9]): 34.5%
Activity (Mus musculus [10]): 35.3%
Activity (Mus musculus [11]): 27.8%
Activity (Rattus norvegicus [13]): 35.3%
Activity (Mus musculus [14]): 40%
Activity (Mus musculus [15]): 29.6%
Activity (Mus musculus [17]): 37.5%
Activity (Mus musculus [19]): 45.1%
Activity (Mus musculus [23]): 48.3%
Activity (Mus musculus [24]): 39.6%
pIC50 [1]: 5.72
pIC50 [2]: 5.11

SMILES: OC[C@@H]1[C@@H](O)[C@H](O)C[S@@+]1C[C@@H](O)[C@H]1OC(c2cccc(F)c2)OC[C@H]1O (stereo partly drawn)
pIC50 [1]: 6.15
pIC50 [2]: 5.77

SMILES: OC[C@@H]1[C@@H](O)[C@H](O)C[S@@+]1C[C@@H](O)[C@H]1OC(c2ccccc2Cl)OC[C@H]1O (stereo partly drawn)
pKi [21]: 6.32
pIC50 [1]: 6.27
pIC50 [2]: 6.39

More lines, main results first:

pIC50 [1]: 5.72
pIC50 [2]: 5.51
SMILES: OC[C@@H]1[C@@H](O)[C@H](O)C[S@@+]1C[C@@H](O)[C@H]1OC(c2cccc(Cl)c2)OC[C@H]1O (stereo partly drawn)

Ratio IC50 [12]: 40
Ratio IC50 [16]: 16
inhibition [18]: Active
Ratio IC50 [20]: 7.5
pKi [21]: 6.45
Ratio IC50 [22]: 20
pIC50 [1]: 7.00
pIC50 [2]: 6.70
inhibition [25]: Active
SMILES: Cl.O=[N+]([O-])c1ccccc1C1OC[C@@H](O)[C@@H]([C@H](O)C[S@+]2C[C@@H](O)[C@H](O)[C@H]2CO)O1 (stereo partly drawn)
Activity (Rattus norvegicus [7]): 45.6%
Activity (Rattus norvegicus [8]): 48.3%
Activity (Rattus norvegicus [9]): 54.6%
Activity (Mus musculus [10]): 43.9%
Activity (Mus musculus [11]): 41.1%
Activity (Rattus norvegicus [13]): 50%
Activity (Mus musculus [14]): 50.1%
Activity (Mus musculus [15]): 38.1%
Activity (Mus musculus [17]): 49%
Activity (Mus musculus [19]): 54.6%
Activity (Mus musculus [23]): 60%
Activity (Mus musculus [24]): 48%

Ratio IC50 [12]: 40
inhibition [18]: Active
pKi [21]: 6.40
pIC50 [1]: 6.66
pIC50 [2]: 6.64
inhibition [25]: Active
SMILES: OC[C@@H]1[C@@H](O)[C@H](O)C[S@@+]1C[C@@H](O)[C@H]1OC(c2ccccc2C(F)(F)F)OC[C@H]1O.[Cl-] (stereo partly drawn)
Activity (Rattus norvegicus [7]): 39.7%
Activity (Rattus norvegicus [8]): 43.2%
Activity (Rattus norvegicus [9]): 48.7%
Activity (Mus musculus [10]): 37.8%
Activity (Mus musculus [11]): 35.1%
Activity (Rattus norvegicus [13]): 45.7%
Activity (Mus musculus [14]): 45.8%
Activity (Mus musculus [15]): 34%
Activity (Mus musculus [17]): 43.5%
Activity (Mus musculus [19]): 51%
Activity (Mus musculus [23]): 56.6%
Activity (Mus musculus [24]): 47.3%

pIC50 [1]: 5.33
pIC50 [2]: 5.35
SMILES: O=[N+]([O-])c1ccc(C2OC[C@@H](O)[C@@H]([C@H](O)C[S@+]3C[C@@H](O)[C@H](O)[C@H]3CO)O2)cc1 (stereo partly drawn)

Ratio IC50 [12]: 10
pKi [21]: 6.12
Ratio IC50 [22]: 5
pIC50 [1]: 6.38
pIC50 [2]: 6.08
SMILES: OC[C@@H]1[C@@H](O)[C@H](O)C[S@@+]1C[C@@H](O)[C@H]1OC(c2ccccc2)OC[C@H]1O (stereo partly drawn)

pIC50 [1]: 5.60
pIC50 [2]: 5.52
SMILES: OC[C@@H]1[C@@H](O)[C@H](O)C[S@@+]1C[C@@H](O)[C@H]1OC(c2ccc(F)cc2)OC[C@H]1O (stereo partly drawn)

pIC50 [1]: 5.64
pIC50 [2]: 5.46
SMILES: OC[C@@H]1[C@@H](O)[C@H](O)C[S@@+]1C[C@@H](O)[C@H]1OC(c2ccc(C(F)(F)F)cc2)OC[C@H]1O (stereo partly drawn)

pIC50 [1]: 6.52
pIC50 [2]: 5.82
SMILES: OC[C@@H]1[C@@H](O)[C@H](O)C[S@@+]1C[C@@H](O)[C@H]1OC(c2cccc(C(F)(F)F)c2)OC[C@H]1O (stereo partly drawn)
